Source: patent publication US20090197880A1 (Genelabs Technologies, Inc., priority 2007, published 2009)

Assay: HCV replicon assay (luciferase) in ET (Huh-lucubineo-ET) cell line
Assay type: cell-based
Settings: Hepatitis C virus; tested at 10 μM; inhibition of replication relative to no compound control; ET replicon cells, luciferase 48-72 hours; read-out: % inhition at 10 μM
Molecule `CCCOc1ccc(-c2cc(Cn3cc4nc(-c5cccc(F)c5F)nc-4cn3)no2)cc1` [Compound 243, 2-(2,3-Difluoro-phenyl)-5-[5-(4-propoxy-phenyl)-isoxazol-3-ylmethyl]-5H-imidazo[4,5-d]pyridazine] has an inhibition at 10 µM of 99.4%.
For `Fc1cccc(-c2nc3ccn(Cc4cc(-c5ccc(C(F)(F)F)cc5C(F)(F)F)no4)nc-3n2)c1F` [Compound 245, 2-[3-(2,4-Bis-trifluoromethyl-phenyl)-isoxazol-5-ylmethyl]-6-(2,3-difluoro-phenyl)-2H-imidazo[4,5-c]pyridazine], the inhibition at 10 µM was 72.8%.
In the case of `Fc1cccc(-c2nc3ccn(Cc4cc(-c5ccc(C(F)(F)F)cc5)no4)nc-3n2)c1F` [Compound 246, 6-(2,3-Difluoro-phenyl)-2-[3-(4-trifluoromethyl-phenyl)-isoxazol-5-ylmethyl]-2H-imidazo[4,5-c]pyridazine], the inhibition at 10 µM is reported as 62.1%.
`Fc1cc(C(F)(F)F)ccc1-c1cc(Cn2ccc3nc(-c4cccc(F)c4F)nc-3n2)on1` [Compound 247, 6-(2,3-Difluoro-phenyl)-2-[3-(2-fluoro-4-trifluoromethyl-phenyl)-isoxazol-5-ylmethyl]-2H-imidazo[4,5-c]pyridazine] gave an inhibition at 10 µM of 80%.
Work on `FC(F)(F)c1ccc(-c2cc(Cn3cc4nc(Nc5ccccc5)nc-4cn3)on2)c(C(F)(F)F)c1` [Compound 248, {5-[3-(2,4-Bis-trifluoromethyl-phenyl)-isoxazol-5-ylmethyl]-5H-imidazo[4,5-d]pyridazin-2-yl}-phenyl-amine] yielded an inhibition at 10 µM of 15.5%.
For `FC(F)(F)c1ccc(-c2cc(Cn3cc4nc(NCc5ccccc5)nc-4cn3)on2)c(C(F)(F)F)c1` [Compound 251, Benzyl-{5-[3-(2,4-bis-trifluoromethyl-phenyl)-isoxazol-5-ylmethyl]-5H-imidazo[4,5-d]pyridazin-2-yl}-amine], the inhibition at 10 µM was 97.7%.
`Fc1cccc(CNc2nc3cnn(Cc4cc(-c5ccc(C(F)(F)F)cc5C(F)(F)F)no4)cc-3n2)c1F` [Compound 255, {5-[3-(2,4-Bis-trifluoromethyl-phenyl)-isoxazol-5-ylmethyl]-5H-imidazo[4,5-d]pyridazin-2-yl}-(2,3-difluoro-benzyl)-amine] gave an inhibition at 10 µM of 4.67%.
With `FC(F)(F)c1ccc(-c2cc(Cn3cc4nc(NCCc5ccccc5)nc-4cn3)on2)c(C(F)(F)F)c1` [Compound 256, {5-[3-(2,4-Bis-trifluoromethyl-phenyl)-isoxazol-5-ylmethyl]-5H-imidazo[4,5-d]pyridazin-2-yl}-phenethyl-amine] the inhibition at 10 µM was 9.34%.
For `FC(F)(F)c1ccc(-c2cc(Cn3cc4nc(N5CCc6ccccc6C5)nc-4cn3)on2)c(C(F)(F)F)c1` [Compound 257, 2-{5-[3-(2,4-Bis-trifluoromethyl-phenyl)-isoxazol-5-ylmethyl]-5H-imidazo[4,5-d]pyridazin-2-yl}-1,2,3,4-tetrahydro-isoquinoline], the inhibition at 10 µM was 0.87%.
With `CC(Nc1nc2cnn(Cc3cc(-c4ccc(C(F)(F)F)cc4C(F)(F)F)no3)cc-2n1)c1ccccc1` (stereo not shown) [Compound 258, {5-[3-(2,4-Bis-trifluoromethyl-phenyl)-isoxazol-5-ylmethyl]-5H-imidazo[4,5-d]pyridazin-2-yl}-(1-phenyl-ethyl)-amine] the inhibition at 10 µM was 40%.
Molecule `FC(F)(F)c1ccc(-c2cc(Cn3cc4nc(NC5CCc6ccccc65)nc-4cn3)on2)c(C(F)(F)F)c1` (stereo not shown) [Compound 259] has an inhibition at 10 µM of 50.6%.
For `FC(F)(F)c1ccc(-c2cc(Cn3cc4nc(NC5CCCc6ccccc65)nc-4cn3)on2)c(C(F)(F)F)c1` (stereo not shown) [Compound 260, {5-[3-(2,4-Bis-trifluoromethyl-phenyl)-isoxazol-5-ylmethyl]-5H-imidazo[4,5-d]pyridazin-2-yl}-(1,2,3,4-tetrahydro-naphthalen-1-yl)-amine], the inhibition at 10 µM was 53.2%.
With `FC(F)(F)c1ccc(-c2cc(Cn3cc4nc(N5Cc6ccccc6C5)nc-4cn3)on2)c(C(F)(F)F)c1` [Compound 261, 5-[3-(2,4-Bis-trifluoromethyl-phenyl)-isoxazol-5-ylmethyl]-2-(1,3-dihydro-isoindol-2-yl)-5H-imidazo[4,5-d]pyridazine] the inhibition at 10 µM was 73.9%.
